From PubChem BioAssay AID504640 (Southern Research Specialized Biocontainment Screening …, 2011)
Calls of active or inactive are those of the source. How the calls were made is not given here. Where a SMILES comes first, the peptide text is derived from it. The star is where a group is joined. Cbz = O=C(OCc1ccccc1)*

Test system: THP-1 cell viability, cytotoxicity
Assay: cytotoxicity in THP-1 cells, cytotoxicity control, cell-based (AID 504640)
Conditions: not given
In the case of Cc1cccc(/C=C/C(=O)c2ccc([N+](=O)[O-])o2)c1, the CC50 is reported as 6.64 µM. With c1ccc(/N=C2\N=C(Nc3ccccn3)c3ccccc32)nc1 the CC50 was < 0.2 µM. For CCOC(=O)C(C)Sc1ncnc2c1nnn2-c1ccc(F)cc1 (configuration not stated), the CC50 was 38.7 µM. CC(C)NC(=O)c1sc(=S)n2c1[nH]c(=O)c1ccc(C(=O)NCCc3ccc(Cl)cc3)cc12 showed a CC50 of 52.8 µM. For Cc1ccc(C(=O)N/N=C(/CC(=O)c2cccs2)C(F)(F)F)cc1, the CC50 was 40.4 µM. With Cc1cccc(-c2oc3ccc(-c4ccc5c(c4)OCO5)cc3c2C#Cc2cncn2C)c1 the CC50 was 35.9 µM. With COC(=O)c1cc(=O)n(-c2ccc(F)cc2)c(=Nc2ccc(F)cc2)s1 the CC50 was 17.6 µM. CC[N+](C)(CC)CCCCOc1ccc2c(c1)C(=O)c1cc(OCCCC[N+](C)(CC)CC)ccc1-2 showed a CC50 of 23.1 µM. For O=C(/C=C/c1ccccc1)N1CCN(CCN2C(=O)c3cccc4cccc(c34)C2=O)CC1, the CC50 was 41.2 µM. For Cc1ccc2ccc3ccc(C)nc3c2n1, the CC50 was < 0.2 µM. Molecule COC(=O)C(Nc1nc(SCC(=O)NC2CCCCC2)nc2ccccc12)c1ccccc1 (configuration not stated) has a CC50 of 50.4 µM. Work on CCC(C)Nc1ccc(NC(C)CC)cc1 (configuration not stated) yielded a CC50 of 3.31 µM. Work on Cc1nn2c(NCc3ccccn3)cc(C(C)C)nc2c1-c1ccccc1 yielded a CC50 of 2.88 µM. CNc1nc(SCc2ccccc2Cl)nc2c1CCCC2 gave a CC50 of 28 µM. S=c1nc[nH]c2nc[nH]c12 showed a CC50 of 0.56 µM. Work on CCOC(=O)CNC(=O)[C@H](Cc1ccccc1)NC(=O)OCc1ccccc1 (Cbz-Phe-Gly-OEt) yielded a CC50 of 43.1 µM. Cc1cc(Br)ccc1NC(=O)c1cnc(N2CCN(c3ccccn3)CC2)c2ccccc12 showed a CC50 of 35.6 µM. Work on CCOC(=O)c1ccc(NC(=O)Cn2ncc(Cl)c(Cl)c2=O)cc1 yielded a CC50 of 0.88 µM. With Oc1ccccc1/C=N/Nc1ccnc(SCc2ccccc2)n1 the CC50 was 44.9 µM. Work on Cc1ccc2c(c1)c(C1=c3ccccc3=NC1=O)c(O)n2C yielded a CC50 of 12.6 µM. O=C(NCC(c1cccs1)N1CCOCC1)c1cc([N+](=O)[O-])cc([N+](=O)[O-])c1 (configuration not stated) gave a CC50 of 58.4 µM.

Test system: not listed separately
Assay: as above
Conditions: THP-1 cell viability, cytotoxicity; at 100 µM (top of the series)
For Cc1nc(SCC(=O)NC2CCCCC2)[nH]c(=O)c1C, the viability was 106% (inactive). In the case of CCOC(=O)COc1ccc(/C=C2\NC(=S)N(CC)C2=O)cc1, the viability is reported as 89.2% (inactive). In the case of COc1cc(NC(=O)C/C(C)=N/NC(=O)c2ccccn2)c(OC)cc1Cl, the viability is reported as 101% (inactive). In the case of Cc1ccc(NC(=O)C2C3/C=C\CCCCC32)cc1C (configuration not stated), the viability is reported as 86.3% (inactive). For O=C(CSc1nc2ccccc2c(=O)[nH]1)NC1CCCCC1, the viability was 92.5% (inactive). For COC(=O)C1CC(=O)N(c2ccc(OCc3ccccc3Cl)cc2)C1 (configuration not stated), the viability was 86.1% (inactive). For CCOC(=O)COn1c2c(c3c4no[n+]([O-])c4ccc31)CCCC2, the viability was 92.6% (inactive). In the case of COC(=O)c1ccc(CNc2c(N3CCCC3)c(=O)c2=O)cc1, the viability is reported as 80.7% (inactive). For CCOC1OC(=O)C(Cl)=C1Nc1ccccc1C (configuration not stated), the viability was 81.1% (inactive). For COC(=O)CCc1nc2c(C#N)c(-c3ccc(Cl)cc3)ccn2n1, the viability was 108% (inactive). For COC(=O)C(C)Oc1ccc(-c2nccc(-c3ccccn3)n2)cc1 (configuration not stated), the viability was 91% (inactive).
